Earlier results, collected in US20250099634A1, “METHOD OF TREATING CANCER” (Novartis AG, priority 2023, published 2025).

Test system: G1-2 midgut and pancreatic NET
Settings: 120 mg/month, cited from earlier work

In the case of `CC(C)[C@@H]1NC(=O)[C@H](CCCCN)NC(=O)[C@@H](Cc2c[nH]c3ccccc23)NC(=O)[C@H](Cc2ccc(O)cc2)NC(=O)[C@@H](NC(=O)[C@H](N)Cc2ccc3ccccc3c2)CSSC[C@@H](C(=O)N[C@H](C(N)=O)[C@@H](C)O)NC1=O` [lanreotide], the “HR for progression or death with lanreotide vs. placebo” value (95% CI 0.30 to 0.73) is listed as 0.47 and the “median PFS” value is listed as “not reached”.
